Reference: PubChem BioAssay AID1996
≈ marks a conversion by molar mass, not a printed value.

Details: buffer; pH 7.4; 200.0 µM
For `COCC(=O)Nc1ccc(Br)cc1C`, the solubility kinetic was 35.8 µg/mL (≈ 139 µM).
For `O=C(Nc1cccc(F)c1)N1CCN(C(=O)c2ccco2)CC1`, the solubility kinetic was over 47.6 µg/mL.
`COc1ccc(CCNC(=O)c2ccccc2C(=O)NCCc2ccc(OC)cc2)cc1` gave a solubility kinetic of 2.2 µg/mL (≈ 5.09 µM).
`CC(C)N(CC#CC(O)(c1ccccc1)c1ccccc1)C(C)C` showed a solubility kinetic of over 48.2 µg/mL.
In the case of `COc1cccc(/C=C/c2[nH]c(=O)[nH]c(=O)c2[N+](=O)[O-])c1O`, the solubility kinetic was over 45.8 µg/mL.
`CC(C)(C)C(=O)c1cn(Cc2ccccc2)c2ccccc12` gave a solubility kinetic of 1.5 µg/mL (≈ 5.15 µM).
`Cc1cc(C)nc(Nc2ccc(Cl)cc2C)n1.Cl` showed a solubility kinetic of 21.2 µg/mL.
With `CC(=O)Nc1cccc(NC(=O)C2CC(=O)N(CCc3ccc(F)cc3)C2)c1` (centres undefined) the solubility kinetic was 38.4 µg/mL (≈ 100 µM).
For `CCOC(=O)C1=C(N)Oc2cc(O)ccc2C1c1cccc(Cl)c1` (centres undefined), the solubility kinetic was under 0.7 µg/mL.
In the case of `COc1cc(/C=C2\N=C(C)OC2=O)cc(OC)c1OC`, the solubility kinetic was 25.3 µg/mL (≈ 91.2 µM).
With `Cc1cc(=O)oc2cc(OCC(=O)N3CCN(Cc4ccccc4)CC3)ccc12` the solubility kinetic was 56.7 µg/mL (≈ 144 µM).
For `CCN(CC)S(=O)(=O)c1ccc(N2CCc3ccccc3C2)nc1`, the solubility kinetic was 25.8 µg/mL (≈ 74.7 µM).
In the case of `CC(Nc1c[nH]c(=O)[nH]c1=O)c1ccccc1` (centres undefined), the solubility kinetic was 22.3 µg/mL (≈ 96.4 µM).
With `Cc1ccc(C(=O)OCC(=O)NC2CCCCC2)o1` the solubility kinetic was over 39.8 µg/mL.
Work on `C=CCSc1nc2sc3c(c2c(=O)[nH]1)CC(C)(CC)OC3` (centres undefined) yielded a solubility kinetic of 0.5 µg/mL (≈ 1.55 µM).
`CN(Cc1ccccc1)c1nc(N)nc(Cl)c1C=O` showed a solubility kinetic of 26.4 µg/mL (≈ 95.4 µM).
`Cn1c(=O)c2c(nc(SCc3ccccc3F)n2C)n(C)c1=O` gave a solubility kinetic of 6.2 µg/mL (≈ 18.5 µM).
`COc1ccc(-c2cc(C(=O)OCC(=O)N3CCOCC3)c3ccccc3n2)cc1` gave a solubility kinetic of 26.3 µg/mL (≈ 64.7 µM).
For `CN1CCN(S(=O)(=O)c2cccc(C(=O)O)c2)CC1`, the solubility kinetic was 42 µg/mL (≈ 148 µM).
Compound `Cc1ccc2nc(SCC(=O)Nc3cc(C)on3)c(C)cc2c1` has a solubility kinetic of under 0.2 µg/mL.
Work on `CCOc1ccccc1Nc1ccc(C(=O)O)cc1[N+](=O)[O-]` yielded a solubility kinetic of 40.8 µg/mL (≈ 135 µM).
Compound `COc1ccc(NC(=O)Cn2c(C)csc2=O)c(OC)c1` has a solubility kinetic of over 46.3 µg/mL.
`O=C(N/N=C/C1CCCCC1)c1ccccc1-n1cccc1` gave a solubility kinetic of over 44.3 µg/mL.
`Cc1ccc(C(=O)NCC(=O)N(C)Cc2cccc(F)c2)s1` gave a solubility kinetic of over 48.1 µg/mL.
Work on `CCC(=O)c1ccc2c(c1)N(CCCN(C)C)c1ccccc1S2.Cl` yielded a solubility kinetic of over 56.5 µg/mL.
With `COc1ccc(NC(=O)CN2C(=O)C(=O)N(C3CCCC3)C2=O)c(OC)c1` the solubility kinetic was over 56.3 µg/mL.
Compound `NC(=S)Nc1cccc(F)c1` has a solubility kinetic of over 25.5 µg/mL.
In the case of `O=C(CN1CCCCC1)Nc1nc(-c2ccc(F)c(F)c2)cs1`, the solubility kinetic was 2 µg/mL (≈ 5.93 µM).
Work on `C=CCNc1nc(N)c([N+](=O)[O-])c(NC2CCCCC2)n1` yielded a solubility kinetic of 0.7 µg/mL (≈ 2.39 µM).
`Nc1cccc(Oc2ccc3c(c2)C(=O)N(CC2CCCO2)C3=O)c1` (centres undefined) showed a solubility kinetic of 41.4 µg/mL (≈ 122 µM).
`Cc1nc(C)c(-c2ccnc(/N=C/NO)n2)s1` gave a solubility kinetic of 34 µg/mL (≈ 136 µM).
For `Cl.NC(Cc1nc2ccccc2[nH]1)c1ccc(Cl)cc1` (centres undefined), the solubility kinetic was 37.7 µg/mL.
With `O=C(CN1CCC(C(=O)O)CC1)Nc1ccccc1Oc1ccccc1` the solubility kinetic was 47.5 µg/mL (≈ 134 µM).
With `O=C(NC1CC1)c1nc(Cn2cc([N+](=O)[O-])cn2)no1` the solubility kinetic was over 41.7 µg/mL.
In the case of `CCCCCn1cnnc1SCC(=O)c1ccc2c(c1)OCO2`, the solubility kinetic was over 50 µg/mL.
`COc1ccccc1NC(=O)NC(=O)c1ccccc1` showed a solubility kinetic of 0.4 µg/mL (≈ 1.48 µM).
Work on `O=C(c1ccccc1)c1ccccc1NC(=O)C1CCCN1Cc1ccccc1` (centres undefined) yielded a solubility kinetic of 2.6 µg/mL (≈ 6.76 µM).
`Cc1c(C)c(C)c(CN2CCSCC2)c(C)c1C` gave a solubility kinetic of under 0.6 µg/mL.
For `O=C(Nc1ccccc1)Nc1ccccc1C(=O)NCC1CC1`, the solubility kinetic was 5.1 µg/mL (≈ 16.5 µM).
`Fc1ccc(Oc2nc(-c3ccccn3)nc3ccccc23)cc1` gave a solubility kinetic of 17.3 µg/mL (≈ 54.5 µM).
For `CCOc1ccc(C2NC(=S)NC3=C2CCc2ccccc23)cc1` (centres undefined), the solubility kinetic was 10.9 µg/mL (≈ 32.4 µM).
For `O=C(CC(SCCO)c1ccc([N+](=O)[O-])cc1)c1ccco1` (centres undefined), the solubility kinetic was 3.7 µg/mL (≈ 11.5 µM).
`O=C(COCc1cc(-c2ccco2)on1)NC1CCCCC1` gave a solubility kinetic of 42.4 µg/mL (≈ 139 µM).
For `Cc1cccc(NC(=O)c2ccc(COc3ccccc3)o2)n1`, the solubility kinetic was 4.8 µg/mL (≈ 15.6 µM).
Compound `Cc1cccc(C(=O)NCC(=O)NC2CCC(C)CC2)c1` (centres undefined) has a solubility kinetic of 10.5 µg/mL (≈ 36.4 µM).
`O=C(c1ccccc1[N+](=O)[O-])N1CCC2(CC1)OCCO2` showed a solubility kinetic of over 43.8 µg/mL.
Compound `C/C(=N/OC(=O)c1ccccc1Br)c1ccc(C)cc1` has a solubility kinetic of 1.5 µg/mL (≈ 4.52 µM).
With `CC1(C)CC(=O)C(C2=NC3(CCCCC3)Cc3ccccc32)=C(O)C1` the solubility kinetic was over 50.6 µg/mL.
Compound `N/C(=N\OC(=O)Nc1ccccc1)c1ccno1` has a solubility kinetic of 24.2 µg/mL (≈ 98.3 µM).
`CC1CN(C(=O)c2cc3cc(Cl)ccc3[nH]2)CC(C)O1` (centres undefined) gave a solubility kinetic of 24.3 µg/mL (≈ 83 µM).
`CCN(CC)CCC#CC1(O)c2ccccc2-c2ccccc21` showed a solubility kinetic of over 45.8 µg/mL.
Work on `CC(=O)N(CCCN(C)C)Cc1ccccn1` yielded a solubility kinetic of 30 µg/mL (≈ 127 µM).
With `Cc1ccc(Oc2ccccc2NC(=O)C2=COCCO2)cc1` the solubility kinetic was 15.8 µg/mL (≈ 50.7 µM).
Compound `OCc1nc2ccccc2n1CCCCOc1ccccc1` has a solubility kinetic of over 44.5 µg/mL.
`NC(=O)C1=CN(Cc2ccc(Cl)cc2)CCC1C(F)(F)F` (centres undefined) gave a solubility kinetic of over 47.8 µg/mL.
`Cc1ccc(Cl)cc1NC(=S)N1CCCCCC1` showed a solubility kinetic of 37.8 µg/mL (≈ 134 µM).
With `CC(=O)N1CCN(c2ccc(S(=O)(=O)N3CCCCC3)cc2[N+](=O)[O-])CC1` the solubility kinetic was over 59.5 µg/mL.
In the case of `O=C(Nc1ccc(C(F)(F)F)cc1)c1ccc2ncsc2c1`, the solubility kinetic was 4.6 µg/mL (≈ 14.3 µM).
`CC(=O)Nc1ccc(S(=O)(=O)NCCCN2CCOCC2)cc1` showed a solubility kinetic of 46.3 µg/mL (≈ 136 µM).
